This is an account of results in patent EP4342890A1, “PLATFORM AND SCAFFOLD FOR FAP TARGETING AGENTS” (Erasmus University Rotterdam Medical Center, priority 2022, dated 2024).

For assay [1], the target named is T1, FAP (Homo sapiens, UniProt Q12884).
T1 sequence (Q12884 1-760): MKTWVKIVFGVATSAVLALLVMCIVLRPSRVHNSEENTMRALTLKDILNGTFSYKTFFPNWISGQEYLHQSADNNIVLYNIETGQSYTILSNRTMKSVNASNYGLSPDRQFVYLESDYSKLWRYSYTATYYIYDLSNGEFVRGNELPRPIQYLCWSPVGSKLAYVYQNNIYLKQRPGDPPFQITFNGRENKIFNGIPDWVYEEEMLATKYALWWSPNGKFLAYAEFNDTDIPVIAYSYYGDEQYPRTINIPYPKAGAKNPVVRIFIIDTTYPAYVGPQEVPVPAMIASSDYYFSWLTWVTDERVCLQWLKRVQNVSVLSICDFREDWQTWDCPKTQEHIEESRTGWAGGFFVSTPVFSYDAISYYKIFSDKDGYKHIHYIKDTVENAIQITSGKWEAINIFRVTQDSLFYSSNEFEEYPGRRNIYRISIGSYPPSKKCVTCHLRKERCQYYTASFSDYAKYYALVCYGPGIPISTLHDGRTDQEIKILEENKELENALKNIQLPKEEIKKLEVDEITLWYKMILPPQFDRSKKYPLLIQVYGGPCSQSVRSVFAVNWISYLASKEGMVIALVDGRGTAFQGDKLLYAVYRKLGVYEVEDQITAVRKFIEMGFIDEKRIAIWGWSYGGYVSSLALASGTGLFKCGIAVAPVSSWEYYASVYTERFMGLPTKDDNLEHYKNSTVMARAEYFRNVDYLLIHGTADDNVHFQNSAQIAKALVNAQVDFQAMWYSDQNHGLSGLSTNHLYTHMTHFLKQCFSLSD
The assay is described as follows: In vitro inhibition assay on human FAP (Z-GP-AMC substrate). Conditions: enzymatic assay; 20 µM Z-GP-AMC, 20 nM FAP; unit inferred. The assay is classed as biochemical. As to the method: (§1) Enzymatic activity of human FAP (hFAP) and mouse FAP (mFAP) on the Z-GP-AMC substrate was measured at room temperature on a Hidex microplate reader by monitoring the fluorescence at an excitation wavelength of 360 nm and an emission wavelength of 465 nm. The reaction mixture contained 20 µM substrate, 20 nM FAP, assay buffer (50 mM Tris, 100 mM NaCl, 1 mM EDTA, pH 7.4) and tested compound (serial dilution from 10^-6 to 10^-12) in a total volume of 50 µL.

Another assay addresses T2, murine FAP (Mus musculus, UniProt P97321).
T2 sequence (P97321 1-761): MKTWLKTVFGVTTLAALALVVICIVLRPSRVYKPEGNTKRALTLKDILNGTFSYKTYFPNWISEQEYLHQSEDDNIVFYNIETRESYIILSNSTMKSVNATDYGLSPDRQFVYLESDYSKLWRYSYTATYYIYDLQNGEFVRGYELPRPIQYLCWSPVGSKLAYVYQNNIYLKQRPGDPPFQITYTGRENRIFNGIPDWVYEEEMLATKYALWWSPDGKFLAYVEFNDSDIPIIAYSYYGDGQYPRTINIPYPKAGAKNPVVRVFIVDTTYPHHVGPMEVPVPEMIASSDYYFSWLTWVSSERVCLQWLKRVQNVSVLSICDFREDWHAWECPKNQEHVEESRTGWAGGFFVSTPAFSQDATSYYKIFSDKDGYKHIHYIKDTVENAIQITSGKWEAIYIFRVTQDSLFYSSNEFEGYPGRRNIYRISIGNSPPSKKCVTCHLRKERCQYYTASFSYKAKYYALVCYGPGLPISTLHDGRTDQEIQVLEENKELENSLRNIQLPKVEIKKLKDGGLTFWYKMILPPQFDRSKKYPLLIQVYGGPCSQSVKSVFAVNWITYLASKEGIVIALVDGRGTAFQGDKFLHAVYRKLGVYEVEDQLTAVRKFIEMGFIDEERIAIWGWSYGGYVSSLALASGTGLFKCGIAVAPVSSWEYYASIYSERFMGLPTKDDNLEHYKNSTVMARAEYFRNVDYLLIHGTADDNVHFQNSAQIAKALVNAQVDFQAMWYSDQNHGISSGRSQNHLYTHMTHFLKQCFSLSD
The assay is described as follows: In vitro inhibition assay on mouse FAP (Z-GP-AMC substrate). As to conditions: enzymatic assay; 20 µM Z-GP-AMC, 20 nM FAP; unit inferred. Type of assay: biochemical. As to the method: as §1

The target of assay [2] is T1, FAP. The assay is described as follows: Competitive binding assay against [111In]In-FAPI-46 in HT-1080.hFAP cells. More on the design: expressed in transfected cells; host or cells: HT-1080.hFAP cells. Conditions: competition with [111In]In-FAPI-46 in HT-1080.hFAP cells, 37 °C, 1 h; unit inferred. The method, then:
The U-87 MG glioblastoma was cultured at 37 °C and 5% CO2 in Dulbecco's Modified Eagle Medium (DMEM) supplemented with 10 % (v/v) fetal calf serum. HT-1080.hFAP cells were kept in culture in DMEM medium supplemented with fetal bovine serum (10%, FBS) and antibiotic antimycotic (1%, AA) at 37 °C and 5% CO2. For passaging, cells were detached using Trypsin-EDTA 0.05% when reaching 90% confluence and re-seeded at a dilution of 1:4.
Competition binding experiments were conducted by incubation of the [^111In]In-FAPI-46 radioligand with increasing concentrations of eFAP compound in HT-1080.hFAP cells at 37 °C for 1 h. Cells were then washed three times with binding buffer and lysed. The cell-associated radioactivity was measured in a γ-counter. The IC50 values were calculated by fitting the data by non-linear regression using GraphPad Prism.

Structures are written as SMILES.

Turning to `CN(CCCN1CCN(C(=O)CN2CCN(CC(=O)O)CCN(CC(=O)O)CCN(CC(=O)O)CC2)CC1)c1ccc2nccc(C(=O)NCC(=O)N3CC(F)(F)C[C@H]3C#N)c2c1` [FAPI-46, reference compound], the IC50 at FAP [1] was 2.7 ± 1.7 nM; at murine FAP it was 15 ± 2 nM; at FAP [2], 1.6 ± 0.3 nM.

Usually IC50 stands for the concentration that inhibits the measured activity by half. A lower IC50 goes with greater potency.
